Laboratory results taken from patent publication US6355620B1, “C-2 modified erythromycin derivatives” (Abbott Laboratories, priority 1999, dated 2002).

Tests used:
Assay in all cases: In vitro antibacterial activity, agar dilution MIC
Format in all cases: cell-based
[1] = tested on: Streptococcus Pneumonia GYR 1171; details: code YY, BHI agar, 35-37° C., 20 to 24 hours, unit assumed
Protocol: (§1) Representative compounds of the present invention were assayed in vitro for antibacterial activity as follows: Twelve petri dishes containing successive aqueous dilutions of the test compound mixed with 10 mL of sterilized Brain Heart Infusion (BHI) agar (Difco 0418-01-5) were prepared. Each plate was inoculated with 1:100 (or 1:10 for slow-growing strains, such as Micrococcus and Streptococcus) dilutions of up to 32 different microorganisms, using a Steers replicator block. The inoculated plates were incubated at 35-37° C. for 20 to 24 hours. In addition, a control plate, using BHI agar containing no test compound, was prepared and incubated at the beginning and end of each test.
(§2) An additional plate containing a compound having known susceptibility patterns for the organisms being tested and belonging to the same antibiotic class as the test compound was also prepared and incubated as a further control, as well as to provide test-to-test comparability.
(§3) After incubation, each plate was visually inspected. The minimum inhibitory concentration (MIC) was defined as the lowest concentration of drug yielding no growth, a slight haze, or sparsely isolated colonies on the inoculum spot as compared to the growth control.

Escherichiacoli DC-2 = details: code SS, BHI agar, 35-37° C., 20 to 24 hours, unit assumed
Protocol: as §1, §2, §3

[2] = tested on: Staphylococcus aureus CMX 642A; details: code DD, BHI agar, 35-37° C., 20 to 24 hours, unit assumed
Protocol: as §1, §2, §3

[3] = tested on: Streptococcus pyogenes EES61; details: code LL, BHI agar, 35-37° C., 20 to 24 hours, unit assumed
Protocol: as §1, §2, §3

[4] = tested on: Staphylococcus aureus A-5278; details: code CC, BHI agar, 35-37° C., 20 to 24 hours, unit assumed
Protocol: as §1, §2, §3

[5] = tested on: Staphylococcus aureus NCTC 10649M; details: code EE, BHI agar, 35-37° C., 20 to 24 hours, unit assumed
Protocol: as §1, §2, §3

[6] = tested on: Streptococcus pyogenes 930; details: code MM, BHI agar, 35-37° C., 20 to 24 hours, unit assumed
Protocol: as §1, §2, §3

[7] = tested on: Staphylococcus epidermidis 3519; details: code HH, BHI agar, 35-37° C., 20 to 24 hours, unit assumed
Protocol: as §1, §2, §3

[8] = tested on: Streptococcus pyogenes PIU 2548; details: code NN, BHI agar, 35-37° C., 20 to 24 hours, unit assumed
Protocol: as §1, §2, §3

[9] = tested on: Staphylococcus aureus CMX 553; details: code FF, BHI agar, 35-37° C., 20 to 24 hours, unit assumed
Protocol: as §1, §2, §3

[10] = tested on: Micrococcusluteus ATCC 4698; details: code PP, BHI agar, 35-37° C., 20 to 24 hours, unit assumed
Protocol: as §1, §2, §3

[11] = tested on: Nocardia Asteroides ATCC 99700; details: code VV, BHI agar, 35-37° C., 20 to 24 hours, unit assumed
Protocol: as §1, §2, §3

[12] = tested on: Streptococcus bovis A-5169; details: code JJ, BHI agar, 35-37° C., 20 to 24 hours, unit assumed
Protocol: as §1, §2, §3

[13] = tested on: Staphylococcus aureus A-5177; details: code BB, BHI agar, 35-37° C., 20 to 24 hours, unit assumed
Protocol: as §1, §2, §3

[14] = tested on: Enterococcusfaecium ATCC X043; details: code II, BHI agar, 35-37° C., 20 to 24 hours, unit assumed
Protocol: as §1, §2, §3

Escherichiacoli SS = details: code RR, BHI agar, 35-37° C., 20 to 24 hours, unit assumed
Protocol: as §1, §2, §3

[15] = tested on: Micrococcusluteus ATCC 9341; details: code OO, BHI agar, 35-37° C., 20 to 24 hours, unit assumed
Protocol: as §1, §2, §3

Candida albicans CCH 442 = details: code TT, BHI agar, 35-37° C., 20 to 24 hours, unit assumed
Protocol: as §1, §2, §3

[16] = tested on: Staphylococcus aureus ATCC 6538P; details: code AA, BHI agar, 35-37° C., 20 to 24 hours, unit assumed
Protocol: as §1, §2, §3

[17] = tested on: Streptococcus Pneumonia ATCC 6303; details: code XX, BHI agar, 35-37° C., 20 to 24 hours, unit assumed
Protocol: as §1, §2, §3

[18] = tested on: Streptococcus Pneumonia 5649; details: code ZZA, BHI agar, 35-37° C., 20 to 24 hours, unit assumed
Protocol: as §1, §2, §3

Escherichiacoli JUHL = details: code QQ, BHI agar, 35-37° C., 20 to 24 hours, unit assumed
Protocol: as §1, §2, §3

[19] = tested on: Mycobacterium smegmatis ATCC 114; details: code UU, BHI agar, 35-37° C., 20 to 24 hours, unit assumed
Protocol: as §1, §2, §3

[20] = tested on: Staphylococcus aureus 1775; details: code GG, BHI agar, 35-37° C., 20 to 24 hours, unit assumed
Protocol: as §1, §2, §3

[21] = tested on: Streptococcus agalactiae CMX 508; details: code KK, BHI agar, 35-37° C., 20 to 24 hours, unit assumed
Protocol: as §1, §2, §3

[22] = tested on: Haemophilislnfluenzae DILL AMP R; details: code WW, BHI agar, 35-37° C., 20 to 24 hours, unit assumed
Protocol: as §1, §2, §3

[23] = tested on: Streptococcus Pneumonia 5979; details: code ZZ, BHI agar, 35-37° C., 20 to 24 hours, unit assumed
Protocol: as §1, §2, §3

| Compound | Antibacterial Activity (MIC) [1] | Antibacterial Activity (MIC) (Escherichiacoli DC-2) | Antibacterial Activity (MIC) [2] | Antibacterial Activity (MIC) [3] | Antibacterial Activity (MIC) [4] | Antibacterial Activity (MIC) [5] | Antibacterial Activity (MIC) [6] | Antibacterial Activity (MIC) [7] | Antibacterial Activity (MIC) [8] | Antibacterial Activity (MIC) [9] | Antibacterial Activity (MIC) [10] | Antibacterial Activity (MIC) [11] | Antibacterial Activity (MIC) [12] | Antibacterial Activity (MIC) [13] | Antibacterial Activity (MIC) [14] | Antibacterial Activity (MIC) (Escherichiacoli SS) | Antibacterial Activity (MIC) [15] | Antibacterial Activity (MIC) (Candida albicans CCH 442) | Antibacterial Activity (MIC) [16] | Antibacterial Activity (MIC) [17] | further results |
| --- | --- | --- | --- | --- | --- | --- | --- | --- | --- | --- | --- | --- | --- | --- | --- | --- | --- | --- | --- | --- | --- |
| CCC1OC(=O)C(C)(CC=Cc2ccccc2)C(=O)C(C)C(OC2OC(C)CC(N(C)C)C2O)C(C)(OC)CC(C)C(=O)C(C)C2NC(=O)OC12C (centres unmarked) [Example 1, Compound of formula (II): R^a is CH3, R^b is H, Y and Z together are O, T is —NH—, R is —CH2CH═CH-(phenyl)] | 4 µg/mL | > 100 µg/mL | 25 µg/mL | 12.5 µg/mL | 100 µg/mL | 50 µg/mL | 50 µg/mL | 50 µg/mL | 12.5 µg/mL | 50 µg/mL | 6.2 µg/mL | 25 µg/mL | 12.5 µg/mL | 25 µg/mL | 25 µg/mL | 50 µg/mL | 3.1 µg/mL | 100 µg/mL | 25 µg/mL | 8 µg/mL | Antibacterial Activity (MIC) [18]: 16 µg/mL; Antibacterial Activity (MIC) (Escherichiacoli JUHL): > 100 µg/mL; Antibacterial Activity (MIC) [19]: 25 µg/mL; Antibacterial Activity (MIC) [20]: 100 µg/mL; Antibacterial Activity (MIC) [21]: 12.5 µg/mL; Antibacterial Activity (MIC) [22]: > 128 µg/mL; Antibacterial Activity (MIC) [23]: 64 µg/mL |
| CCC1OC(=O)C(C)(O)C(=O)C(C)C(OC2OC(C)CC(N(C)C)C2O)C(C)(OCC(O)CO)CC(C)C(=O)C(C)C2NC(=O)OC12C (centres unmarked) [Example 3, Compound of formula (II): R^a is —CH2CH(OH)CH2OH, R^b is H, Y and Z together are O, T is —NH—, R is —OH] | 32 µg/mL | > 100 µg/mL | > 100 µg/mL | 100 µg/mL | > 100 µg/mL | > 100 µg/mL | > 100 µg/mL | > 100 µg/mL | > 100 µg/mL | > 100 µg/mL | > 100 µg/mL | > 100 µg/mL | 50 µg/mL | > 100 µg/mL | 100 µg/mL | 100 µg/mL | 50 µg/mL | > 100 µg/mL | > 100 µg/mL | 64 µg/mL | Antibacterial Activity (MIC) [18]: > 128 µg/mL; Antibacterial Activity (MIC) (Escherichiacoli JUHL): > 100 µg/mL; Antibacterial Activity (MIC) [19]: > 100 µg/mL; Antibacterial Activity (MIC) [20]: > 100 µg/mL; Antibacterial Activity (MIC) [21]: 50 µg/mL; Antibacterial Activity (MIC) [22]: > 128 µg/mL; Antibacterial Activity (MIC) [23]: > 128 µg/mL |
| CC[C@H]1OC(=O)[C@H](C)[C@@H](O[C@H]2C[C@@](C)(OC)[C@@H](O)[C@H](C)O2)[C@H](C)[C@@H](O[C@@H]2O[C@H](C)C[C@H](N(C)C)[C@H]2O)[C@](C)(O)C[C@@H](C)C(=O)[C@H](C)[C@@H](O)[C@]1(C)O [Ery. A standard, Erythromycin A, reference compound] | 0.06 µg/mL | > 100 µg/mL | 0.39 µg/mL | 0.05 µg/mL | > 100 µg/mL | 0.39 µg/mL | > 100 µg/mL | 0.39 µg/mL | 6.2 µg/mL | 0.39 µg/mL | 0.2 µg/mL | 0.1 µg/mL | 0.02 µg/mL | 3.1 µg/mL | 0.05 µg/mL | 0.78 µg/mL | 0.05 µg/mL | > 100 µg/mL | 0.2 µg/mL | 0.06 µg/mL | Antibacterial Activity (MIC) [18]: 16 µg/mL; Antibacterial Activity (MIC) (Escherichiacoli JUHL): > 100 µg/mL; Antibacterial Activity (MIC) [19]: 3.1 µg/mL; Antibacterial Activity (MIC) [20]: > 100 µg/mL; Antibacterial Activity (MIC) [21]: 0.05 µg/mL; Antibacterial Activity (MIC) [22]: 4 µg/mL |
| C#CCOC1(C)CC(C)C(=O)C(C)C2NC(=O)OC2(C)C(CC)OC(=O)C(C)(CC=Cc2ccccc2)C(=O)C(C)C1OC1OC(C)CC(N(C)C)C1O (centres unmarked) [Example 9, Compound of formula (II): R^a is —CH2C═CH, R^b is H, Y and Z together are O, T is —NH—, R is —CH2CH═CH-(phenyl)] | 1 µg/mL | > 100 µg/mL | 3.1 µg/mL | 1.56 µg/mL | > 100 µg/mL | 12.5 µg/mL | 50 µg/mL | 6.2 µg/mL | 3.1 µg/mL | 3.1 µg/mL | 3.1 µg/mL | 1.56 µg/mL | 0.78 µg/mL | 3.1 µg/mL | 3.1 µg/mL | 6.2 µg/mL | 1.56 µg/mL | > 100 µg/mL | 3.1 µg/mL | 1 µg/mL | Antibacterial Activity (MIC) [18]: 8 µg/mL; Antibacterial Activity (MIC) (Escherichiacoli JUHL): > 100 µg/mL; Antibacterial Activity (MIC) [19]: 12.5 µg/mL; Antibacterial Activity (MIC) [20]: > 100 µg/mL; Antibacterial Activity (MIC) [21]: 1.56 µg/mL; Antibacterial Activity (MIC) [22]: > 64 µg/mL; Antibacterial Activity (MIC) [23]: 64 µg/mL |
